Test results taken from US20260347399A1, “BRAIN PENETRATING PEPTIDES AND METHODS OF USE” (priority 2022, published 2026).
Ends that are not written are not given here.

What was measured:
mouse brain [1] = experiment: In vivo phage display with CX4CYX library
Procedure: In vivo phage display with CX4CYX library was performed in three selection rounds. Phage library was injected intravenously to Balb/c mice and allowed to circulate for one hour. After circulation, the animals were anesthetized and perfused intracardially with acid and detergent buffers. Brain and control organs were collected and homogenized in 1% NP40-LB. Bound phages were rescued by amplification in E. coli and their genomic DNA was sequenced by Ion Torrent next generation DNA sequencing system.
A novel phage library CX4CYX was constructed based on the alanine-leucine screen to find new brain homing peptides). This knowledge directed us to construct a novel phage library CX4CYX (X—any amino acid), where Cys1, Cys6 and Tyr7 remained in their intact positions, and the four amino acid variable-domain laid between the cysteines, and one amino acid variability after Tyr7. Three rounds of phage bio-panning was performed to allow enrichment of peptides in the brain. Again acid and detergent buffers were used for perfusion to remove non-specifically bound phages from the brain after systemic administration of phage library (round 1) and recovered brain phage pools (round 2 and 3). HTS reads from round 1 to round 3 indicated decent enrichment of in-frame peptides in the brain (Table 6).

mouse brain [2] = experiment: In vivo play-off screen with 10 published CNS homing peptide-phages; conditions: phage pool i.v., 1 h; acid and detergent perfusion
Procedure: Play-off screen was carried out with 10 previously published BBB penetrating/CNS homing peptide-phages. […] Oligonucleotides were annealed and ligated into the phage genome using T7Select 415-1 cloning kit (Novagen) and the T7Select System Manual. Each peptide-phage was separately amplified in liquid bacterial culture, precipitated with PEG, recovered in PBS and titered. Phages were mixed in equimolar ratios and purified with CsCl-ultracentrifugation and dialysis. Titer of the play-off pool was determined and mice were intravenously injected with 1×10^10 pfu of phage pool. After one hour of circulation time, mice were perfused with acid buffer (500 mM NaCl, 0.1 M glycine, 1% BSA, pH2.5) and detergent buffer (1% NP40 in PBS), collected organs were homogenized and phage pools amplified for high-throughput sequencing.
Novel BBB penetrating and CNS homing peptide was identified in a step by step process including a phage play-off screens, alanine scanning mutagenesis and phage display with unique library. The first selection step included a phage play-off screen with ten previously published CNS homing peptides (Table 5). To ensure collecting BBB penetrating and CNS homing peptides, phage play-off pool was intravenously (iv) injected into the mice and perfusion was done with acid and detergent buffers to remove unbound phages and brake the endothelial layer of blood vessels. […]

activated microglia = experiment: FAM-CVG colocalization with activated microglia in glioma; assay type: in vivo, mouse; conditions: FAM-labelled, i.v., 1 h; WT GBM, glioma edge and core
Procedure: WT GBM glioma-bearing mice were injected iv with FAM-labelled CVG peptide for 1 hour circulation. Mice were perfused and tissues of interest were snap-frozen in the vapor of liquid nitrogen. Immunofluorescent staining was carried out with the following antibodies: FAM, CD68, CD11b and CD206.

mouse brain [3] = experiment: In vivo play-off of alanine-scan peptide-phages; conditions: 5×10^9 pfu phage mix i.v., 1 h, HTS
Procedure: To determine which amino acid positions are important for brain homing of Cerepep, in vivo play-off method was used. A pool of T7 peptide-phages was created, where each amino acid of Cerepep sequence was changed one-by-by to alanine and alanines were changed to leucines. These clones, original Cerepep peptide-phage clone and control insertless phage were mixed in equimolar ratio and 5×10^9 pfu of phage mix was injected i.v. into male Balb/C mice (n=2). Following 1 h circulation the animals were anesthetized and perfused with PBS. The prevalence of phage clones in the brain was determined by high throughput sequencing.
To determine which amino acid positions are important for brain homing of SERVISRAKLAAAL (SEQ ID NO:9), a pool of peptide-phage clones was compiled, where every amino acid position was one-by-one changed to alanine (alanines were changed to leucines). […] The phage mix was injected into mice and following a 1 h circulation the amount of different phage clones in the brain was determined using HTS. […]
Based on studies involving in vivo play-off analyses, it was determined that Arginines and isoleucine are crucial for the brain homing of Cerepep (CP) peptide. Every position of CP peptide was one-by one mutated to alanine (alanines were changed to leucines) and the brain homing of each mutated peptide-phage was assessed using in vivo play-off method (FIG. 7C). […]

Substance: CAGALCY [reference compound]
- R1 reads (mouse brain [1]; round 1): 3 reads
- R3 reads (mouse brain [1]; round 3): 880 reads
- R3 > R1 (ratio of sequencing reads between round 3 and round 1) (mouse brain [1]; round 3 / round 1): 293
- representation in the brain (HTS reads) (mouse brain [2]): highest representation in the brain

Substance: FAM-labelled CVG peptide: 5(6)-carboxyfluorescein-labelled CVGTNCY peptide (not fully specified (N-terminus); cysteine pairing not given here; also: 5(6)-carboxyfluorescein label, position not given here)
- colocalization with activated microglia markers CD68, CD11b and CD206 (activated microglia): colocalization with activated microglia markers CD68, CD11b and CD206 cells

Substance: RRVISRAKLAAAL
- brain homing / brain accumulation of mutated peptide-phage (mouse brain [3]): appear to be necessary for brain homing
